Reference: US7943330B2, “Tailored glycoproteomic methods for the sequencing, mapping and identification of cellular glycoproteins” (Academia Sinica, priority 2007, dated 2011)

Columns and labels:
[1] = test system: plexin B2 in A549 mock, FucT4 and FucT6 cells; assay: Incorporation of alkynyl fucose into plexin B2 glycans (IP, on-membrane click reaction, streptavidin blot); type: cell-based; details: alkynyl fucose-treated mock, stronger in FucT4/6-overexpressing cells, no signal without treatment
Description: Total proteins were extracted from untreated or alkynyl fucose-treated mock control, FucT4 and FucT6 stable cell lines. Proteins ([…]) were dissolved in 500 ml IP buffer (1% NP-40, 150 mM NaCl, 10% glycerol, 50 mM HEPES, pH 7.5 and 1×EDTA-free protease inhibitor cocktail) and precleared with 25 ml protein G beads (GE Healthcare) at 4° C. for 1 h. Precleared proteins extracts were then incubated with 3 mg anti-plexin B2 antibody/25 ml protein G beads at 4° C. for 1 h for overnight. Immunoprecipitates were subjected to SDS-PAGE and the proteins were transferred to PVDF membrane. After blocking with 5% BSA/PBST (0.1% Tween 20/PBS) for 1 h and wash with PBST and PBS sequentially, the protein-side of PVDF membrane was faced down to immerse in click reaction mixture (0.1 mM azido biotin, 0.1 mM Tris-triazoleamine catalyst, 1 mM CuSO4, 2 mM sodium ascorbate; 1 ml for a blot from a mini-gel) and incubated at room temperature for 1 h. After wash with PBST twice, the membrane was probed with peroxidase-conjugated streptavidin for biotin tags on blots.
Comparative profiling of fucosylated N-linked glycoproteins using the GIDmap method disclosed herein was conducted in lung cancer cell line A549 over-expressing either fucosyltransferases (FucT) 4 or 6. […] The biotin signals were then detected by immunoblotting with peroxidase-conjugated streptavidin. […]

[2] = test system: Jurkat cells; assay: Flow cytometry of cell-surface CuAAC labeling of alkynyl-tagged glycans; type: cell-based; details: for cell-surface fluorescent labeling: CuAAC with 3-azido-7-hydroxycoumarin probe
Description: Cell culture: Breast cancer MCF-7 and Jurkat cells were cultivated (2×10^6/10 ml) in RPMI 1640 medium (Invitrogen) supplemented with 10% FCS. Peracetylated alkynyl sugars Fucyne (200 uM) and ManNAcyne (25 uM) or native control sugars ManNAc for 1 to 3 days at 37° C.
Flow cytometry analysis: Cells were harvested, washed with 0.1% FCS/PBS, and resuspended (10^6 cells for Jurkat cells; 3×10^5 cells for other cells) in 100 microliters of click reaction solution (0.1 mM biotin probe, 0.1 mM Tris-triazoleamine catalyst, 0.1 mM CuSO4/0.5 mM sodium ascorbate, in PBS). The reaction was incubated at room temperature for 30 min, and then the cells were washed twice with 0.1% FCS/PBS. Cells treated with biotin probe were subsequently stained with fluorescein-conjugated streptavidin (0.5 microgram per sample in 50 microliters of 1% FCS/PBS) for 30 min at 4° C., and washed three times with 1% FCS/PBS. Data were acquired by BD LSR II with FACSDiva software, and were analyzed by CellQuestPro software (BD Biosciences).

[3] = test system: cells; assay: Cell toxicity of sugar analogs at the levels used for metabolic incorporation; type: cell-based; details: compared with azido Fuc analogs of previous approaches; 200 μM fucose precursors, 25 μM sialic acid precursors
Description: In an exemplary implementation of the MOE method disclosed herein, an appropriate cell growth medium is supplemented with a peracetylated version of the CuAAC competent sugars, 25 μM for sialic acid precursors and 200 μM for fucose precursors (although peracetylation increases cellular uptake of sugars, the acetate groups are cleaved by esterases before it is converted to the nucleotide-sugar donor and incorporated into emerging glycans via glycosyltransferases). As shown by the biosynthetic pathways in FIG. 1, the ManNAc derivatives feed directly into de novo synthesis of NeuAc-CMP, whereas, fucose derivatives are incorporated through a salvage pathway for the synthesis of Fuc-GDP. For labeling, the alkyne-tagged cellular glycans, cells and/or cell lysates are treated with an appropriate CuAAC probe (depicted as 6-8 in FIG. 2). Overall, CuAAC is well-suited for functionalizing cellular glycans since it may be performed in aqueous environments, with high chemoselectively, to form stable 1,2,3-triazoles in nearly quantitative yield, starting from inconspicuous and inert azide or alkyne reaction partners. In conjunction the triazole ligand, CuAAc reactions can be executed under very mild and biocompatible conditions, requiring ambient temperature and low reactant concentrations. […] CuAAC is well-suited for end-point analysis, such as flow cytometry and glycoproteomic purposes. […]

[4] = test system: MCF7 (breast adenocarcinoma) cells; assay: Confocal microscopy of intracellular labeling of alkynyl-tagged glycans; type: cell-based, Human; details: 3-day incubation, biotin probe and fluorescein-conjugated streptavidin, overlaps with WGA (Golgi) signal
Description: (§1) To visualize the localization of alkyne-tagged glycans, adherent cells were grown on slides in the presence or absence of alkynyl sugar analogs or precursors. After a 3-day-incubation, cells attached to the slides are fixed, permeabilized, and labeled with either a biotin probe or fluorogenic coumarin probe for fluorescent signal analysis with confocal microscopy, as shown in FIG. 3C. For comparison, samples are also stained with wheat germ agglutinin (WGA, a Golgi marker).
(§2) Fluorescent Labeling in Cells: Human hepatocellular carcinoma cells (Hep3B) or breast adenocarcinoma cells (MCF7) were seeded onto six-well plates (3×10^5/2 ml per well) containing glass coverslips, and were cultivated in 10% FCS/DMEM or 10% FCS/RPMI medium 1640. Growth medium was supplemented with a control sugar (200 micromolar Fuc or 25 micromolar ManNAc) and an alkynyl-modified sugar (Fucyne or ManNAcyne at the same concentration as control sugars). After growing for 3 days, cells on coverslips were fixed and permeabilized with acetone for 10 min, then subjected to the probe labeling reaction: 0.1 mM biotin probe or fluorogenic coumarin probe, 0.1 mM Tris-triazoleamine catalyst, 1 mM CuSO4, 2 mM sodium ascorbate, in PBS, at room temperature for 30 min. Subsequently, the fixed and labeled cells were rinsed with PBS and stained with Alexa Fluor 594-conjugated WGA lectin (2 micrograms/ml in 5% BSA/PBS) and/or fluorescein-conjugated streptavidin (2 micrograms/ml in 5% BSA/PBS) at room temperature for 30 min. Hoechst 33342 (10 microgram/ml in PBS) was used to stain nuclei. Fluorescent images were captured by Bio-Rad (Carl Zeiss) Radiance 2100 Rainbow laser scanning confocal microscopy system.

[5] = test system: cell extracts (soluble lysate fractions); assay: SDS/PAGE, Western blot and fluorescence detection of labeled glycoproteins in cell extracts; type: cell-based; details: for biotin-labeling signal of proteins by Western blot: lysate clicked with biotin probe, mouse anti-biotin MAb, 200 micromolar Fucyne, 25 micromolar ManNAcyne, 3 days; for signal by Western blot or fluorescence: control sugars processed under the same click condition
Description: Immunoblotting (IB) and immunoprecipitation (IP): Cells were seeded at 3×10^6/8 ml per 10-cm dish and treated with control and test sugars (200 micromolar Fuc vs. Fucyne or 25 micromolar ManNAc vs. ManNAcyne) in growth medium at 37° C. After 3 days, cell extracts were prepared by resuspending the cells in 1 ml of lysis buffer (1% Nonidet P-40/150 mM NaCl/protease inhibitor/100 mM sodium phosphate, pH 7.5). Protein extract (1 mg/ml) was labeled for 1 h at room temperature (0.1 mM biotin probe, or fluorogenic coumarin probe, 0.1 mM tris-triazoleamine catalyst, 1 mM CuSO4, and 2 mM sodium ascorbate, in PBS; the azido rhodamine probe was a gift from Benjamin F. Cravatt, The Scripps Research Institute). Labeled protein lysate was resolved by SDS/PAGE. For immunoblotting of biotin-labeled glycoproteins, electrophoresed proteins were transferred onto PVDF membranes, blocked for 20 min with SuperBlock® Blocking Buffer. Blots were either probed for 1 h with anti-biotin MAb (1 microgram/ml), and incubated with peroxidase-conjugated goat anti-mouse IgG (1:7,500 dilution) for 30 min; or probed for 1 h with peroxidase-conjugated anti-biotin Ab (Calbiochem)(1:5000 in SuperBlock). Each step was followed by a wash with 0.02% Tween 20/PBS (PBST). Signal was developed with SuperSignal Chemiluminescent Substrate and detected by exposure to x-ray film. For detecting the coumarin-labeled glycoproteins, gels were examined under 365 nm UV light with a 535+/−50 nm filter. Images were taken by using a BioDoc-It imaging system (UVP). Rhodamine gels were analyzed as described (Speers A E, Cravatt B F (2004) Chem Biol 11:535-546).

[6] = test system: Hep3B hepatocellular carcinoma cells; assay: Confocal microscopy of intracellular labeling of alkynyl-tagged glycans; type: cell-based, Human; details: 3-day incubation; biotin probe and fluorogenic coumarin probe; compared with the Fucyne result
Description: as §1, §2

Compound	biotin signal of immunoprecipitated plexin B2 after on-membrane CuAAC [1]	cell-surface fluorescent labeling [2]	toxicity to cells [3]	intracellular labeling signal (confocal microscopy) [4]	biotin-labeling signal of proteins by Western blot [5]	signal by Western blot or fluorescence [5]	intracellular labeling signal (confocal microscopy) [6]	cell-surface labeling signal ([2]; CuAAC-labeled with biotin, detected by fluorescein-conjugated streptavidin, vs control ManNAc)
1,2,3,4-tetraacetyl alkynyl fucose [Fucyne]	positive signals	significant fluorescent labeling	greatly reduced toxicity	strong punctuate-labeling signal	specific biotin-labeling signals were detected	–	–	–
C[C@H](O)[C@@H](O)[C@@H](O)[C@H](O)C=O [Fuc, Fucose, reference compound]	–	very low background signals	–	very low background	–	little to no signal	–	–
CC(=O)N[C@@H]1C(O)O[C@H](CO)[C@@H](O)[C@@H]1O (stereo partly shown) [ManNAc, N-acetylmannosamine, reference compound]	–	–	–	–	–	little to no signal	very low background	–
C#CCCC(=O)N[C@@H]1C(OC(C)=O)O[C@H](COC(C)=O)[C@@H](OC(C)=O)[C@@H]1OC(C)=O (stereo partly shown) [ManNAcyne, 1,3,4,6-tetra-O-acetyl-N-4-pentynoylmannosamine]	–	–	greatly reduced toxicity	–	specific biotin-labeling signals were detected	–	–	specific signal on the cell surface
